Measurements reported in ChEMBL document CHEMBL1201862, “PubChem BioAssay data set” (2004).
Calls of active or inactive are those of the source.

How the values were obtained:
[1] = HEp-2 cell cytotoxicity, dose response, cytotoxicity control for RSV inhibitor project, HTS (AID 2410); type: functional; details: human respiratory syncytial virus
[2] = Luminescence Cell-Based Dose Retest to Confirm Inhibitors of Cancer Stem Cells. [Related pubchem assays (depositor defined):AID2717, AID2721]; type: functional; details: Homo sapiens
Protein skinhead-1 = molecular target: T1, Protein skinhead-1 (Caenorhabditis elegans, UniProt P34707); type: functional
T1 sequence (P34707 whole entry): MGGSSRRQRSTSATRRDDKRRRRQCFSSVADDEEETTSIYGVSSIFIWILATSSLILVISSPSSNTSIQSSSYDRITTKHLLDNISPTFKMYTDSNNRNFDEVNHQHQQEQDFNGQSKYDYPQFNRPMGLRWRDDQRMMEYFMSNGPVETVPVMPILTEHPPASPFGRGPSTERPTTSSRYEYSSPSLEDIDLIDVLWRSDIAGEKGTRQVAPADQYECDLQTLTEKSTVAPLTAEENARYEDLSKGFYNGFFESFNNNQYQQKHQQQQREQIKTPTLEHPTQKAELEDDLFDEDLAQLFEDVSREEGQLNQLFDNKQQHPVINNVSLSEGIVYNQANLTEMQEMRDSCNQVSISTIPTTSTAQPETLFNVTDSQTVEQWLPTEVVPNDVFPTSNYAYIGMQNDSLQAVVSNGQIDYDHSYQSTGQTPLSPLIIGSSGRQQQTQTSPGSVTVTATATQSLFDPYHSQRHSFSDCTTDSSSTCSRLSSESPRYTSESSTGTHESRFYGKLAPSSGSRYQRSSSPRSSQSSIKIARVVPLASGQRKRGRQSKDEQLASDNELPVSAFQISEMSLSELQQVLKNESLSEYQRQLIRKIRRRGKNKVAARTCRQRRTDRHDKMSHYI

H9c2 = test: cells; type: functional, cell-based; details: Rattus norvegicus, H9c2, Myocardium;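 also: confirmatory concentration-response retest of ultra-high-throughput screening hits for modulation of myocardial damage; cell death induced by hydrogen peroxide oxidative stress; compound pretreatment for 60 min then peroxide exposure for 2 h; potency is for protecting the cells against peroxide damage rather than for killing them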
[3] = molecular target: T2, Heat shock factor protein 1 (Mus musculus, UniProt P38532); test: inhibition of MG132-induced HSE-luciferase signal, confirmation, cell-based, NIH3T3, luminescence, dose retest (AID 2382); type: functional;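 also: NIH3T3 fibroblasts with HSF1-driven luciferase reporter stressed by proteasome inhibitor MG132; luminescence from HSF1-driven luciferase expression after 8 hours of MG132 stress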
T2 sequence (P38532 whole entry): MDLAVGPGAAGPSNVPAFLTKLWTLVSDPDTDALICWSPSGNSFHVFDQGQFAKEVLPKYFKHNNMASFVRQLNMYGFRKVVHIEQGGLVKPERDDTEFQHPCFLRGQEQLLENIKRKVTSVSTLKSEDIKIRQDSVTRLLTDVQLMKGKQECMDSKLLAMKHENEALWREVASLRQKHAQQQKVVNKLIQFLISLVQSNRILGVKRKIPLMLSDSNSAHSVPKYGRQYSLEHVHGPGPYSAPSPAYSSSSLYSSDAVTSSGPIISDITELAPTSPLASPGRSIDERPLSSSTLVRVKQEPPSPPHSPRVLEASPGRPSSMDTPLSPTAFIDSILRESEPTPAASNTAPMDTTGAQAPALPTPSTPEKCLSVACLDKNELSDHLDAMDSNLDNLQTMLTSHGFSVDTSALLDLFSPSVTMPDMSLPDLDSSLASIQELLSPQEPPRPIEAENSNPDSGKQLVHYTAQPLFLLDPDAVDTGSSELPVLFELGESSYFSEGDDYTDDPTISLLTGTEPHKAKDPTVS

Cytochrome P450 2D6 = Cytochrome P450 2D6 (Homo sapiens, UniProt P10635);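 also: CYP2D6 member of a cytochrome P450 panel assay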
Cytochrome P450 3A4 = Cytochrome P450 3A4 (Homo sapiens, UniProt P08684);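 also: CYP3A4 tested as one member of a cytochrome P450 panel screen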
Paired box protein Pax-8 = Paired box protein Pax-8 (Homo sapiens, UniProt Q06710); test: inhibitors of PAX8-driven TPO luciferase reporter, dose response, RMG-I cells, cherry-pick (AID 687027); type: functional, cell-based;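 also: luciferase reporter driven by Pax8 target thyroperoxidase promoter measured by SteadyGlo luminescence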
[4] = inhibitors of firefly luciferase expression or activity, dose response, H4 neuroglioma cells, luminescence (AID 1990); type: functional, cell-based
[5] = Luminescence Cell-Based Dose Response HTS to Identify Inhibitors of 5'UTR Stem-Loop Driven Prion Protein mRNA Translation in H4 Neuroglioblastoma Cells. [Related pubchem assays: 1827 (Project Summary), 1813 (Primary HTS)]; type: functional
[6] = inhibitors of SNCA 5'UTR-driven reporter translation, confirmation, H4 neuroglioma cells, luminescence (AID 1988); type: functional, cell-based
[7] = molecular target: T3, Replicative DNA helicase DnaB (Mycobacterium tuberculosis, UniProt P9WMR3); test: DnaB intein splicing inhibitors, dose response, biochemical, cell-free fluorescence (AID 449749); type: functional
T3 sequence (P9WMR3 whole entry): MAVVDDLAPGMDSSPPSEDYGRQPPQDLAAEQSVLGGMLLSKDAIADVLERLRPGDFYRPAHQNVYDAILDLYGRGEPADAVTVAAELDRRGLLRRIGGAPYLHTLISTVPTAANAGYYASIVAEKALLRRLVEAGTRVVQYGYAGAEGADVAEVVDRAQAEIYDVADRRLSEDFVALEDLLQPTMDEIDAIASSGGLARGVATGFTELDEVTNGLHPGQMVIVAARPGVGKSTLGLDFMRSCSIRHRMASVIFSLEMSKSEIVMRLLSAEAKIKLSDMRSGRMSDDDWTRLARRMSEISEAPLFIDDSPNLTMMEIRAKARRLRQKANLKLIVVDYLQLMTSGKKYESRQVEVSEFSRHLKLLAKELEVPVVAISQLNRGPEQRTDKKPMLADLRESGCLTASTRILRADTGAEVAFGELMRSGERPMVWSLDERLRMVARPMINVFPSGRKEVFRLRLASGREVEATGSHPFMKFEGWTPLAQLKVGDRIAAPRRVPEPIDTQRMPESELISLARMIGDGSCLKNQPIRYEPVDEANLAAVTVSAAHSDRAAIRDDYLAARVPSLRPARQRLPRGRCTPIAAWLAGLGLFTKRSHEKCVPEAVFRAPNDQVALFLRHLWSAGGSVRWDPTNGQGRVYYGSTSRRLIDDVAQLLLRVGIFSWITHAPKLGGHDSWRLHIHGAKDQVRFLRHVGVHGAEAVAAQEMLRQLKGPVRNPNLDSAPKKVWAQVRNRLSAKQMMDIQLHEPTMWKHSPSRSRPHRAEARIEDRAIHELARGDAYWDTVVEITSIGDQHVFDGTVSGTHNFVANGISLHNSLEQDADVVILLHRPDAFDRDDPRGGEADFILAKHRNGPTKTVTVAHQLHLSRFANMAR

Protein RecA = molecular target: T4, Protein RecA (Mycobacterium tuberculosis, UniProt P9WHJ3); test: Fluorescence Cell-Free Homogeneous Dose Retest to Identify Inhibitors of RecA-Intein Splicing Activity. [Related pubchem assays (depositor defined):AID2097, AID2223, AID489010, AID492950]; type: functional
T4 sequence (P9WHJ3 whole entry): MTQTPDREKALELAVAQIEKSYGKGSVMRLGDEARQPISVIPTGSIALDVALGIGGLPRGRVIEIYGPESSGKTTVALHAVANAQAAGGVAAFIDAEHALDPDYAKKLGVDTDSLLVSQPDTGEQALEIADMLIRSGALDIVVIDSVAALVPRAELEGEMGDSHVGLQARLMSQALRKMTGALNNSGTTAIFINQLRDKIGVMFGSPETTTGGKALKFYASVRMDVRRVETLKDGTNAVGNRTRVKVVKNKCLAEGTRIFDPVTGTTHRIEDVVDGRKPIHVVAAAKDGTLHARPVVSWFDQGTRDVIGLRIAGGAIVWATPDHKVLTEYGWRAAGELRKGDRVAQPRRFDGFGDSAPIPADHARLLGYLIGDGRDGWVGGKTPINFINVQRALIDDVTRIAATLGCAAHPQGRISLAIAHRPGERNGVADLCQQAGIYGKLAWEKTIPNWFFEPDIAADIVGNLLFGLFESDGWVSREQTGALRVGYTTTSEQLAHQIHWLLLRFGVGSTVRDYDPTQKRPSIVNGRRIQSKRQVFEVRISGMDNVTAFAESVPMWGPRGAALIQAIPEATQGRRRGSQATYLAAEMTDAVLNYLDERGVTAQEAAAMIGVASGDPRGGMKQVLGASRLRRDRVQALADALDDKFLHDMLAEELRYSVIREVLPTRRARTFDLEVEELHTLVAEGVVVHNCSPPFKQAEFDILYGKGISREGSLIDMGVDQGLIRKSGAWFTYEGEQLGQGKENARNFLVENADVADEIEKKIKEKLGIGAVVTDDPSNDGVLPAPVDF

[8] = P. falciparum Dd2 growth inhibitors, dose response, SYBR Green, cherry-picked samples (AID 1159567); type: functional, cell-based

Chain of Paired box protein Pax-8 (Q06710 whole entry): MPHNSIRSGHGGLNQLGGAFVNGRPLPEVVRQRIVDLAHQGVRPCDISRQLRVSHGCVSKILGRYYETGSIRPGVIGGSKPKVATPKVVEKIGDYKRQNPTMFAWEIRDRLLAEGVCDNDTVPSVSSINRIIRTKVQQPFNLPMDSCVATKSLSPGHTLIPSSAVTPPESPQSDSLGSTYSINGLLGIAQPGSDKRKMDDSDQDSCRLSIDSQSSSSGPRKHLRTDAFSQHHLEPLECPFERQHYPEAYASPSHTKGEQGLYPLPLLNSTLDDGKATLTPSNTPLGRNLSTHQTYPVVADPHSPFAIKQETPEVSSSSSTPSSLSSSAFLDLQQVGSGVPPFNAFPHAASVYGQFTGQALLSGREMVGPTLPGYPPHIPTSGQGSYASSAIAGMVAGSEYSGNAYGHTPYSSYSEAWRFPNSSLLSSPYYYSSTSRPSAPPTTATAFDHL
Chain of Cytochrome P450 2D6 (P10635 whole entry): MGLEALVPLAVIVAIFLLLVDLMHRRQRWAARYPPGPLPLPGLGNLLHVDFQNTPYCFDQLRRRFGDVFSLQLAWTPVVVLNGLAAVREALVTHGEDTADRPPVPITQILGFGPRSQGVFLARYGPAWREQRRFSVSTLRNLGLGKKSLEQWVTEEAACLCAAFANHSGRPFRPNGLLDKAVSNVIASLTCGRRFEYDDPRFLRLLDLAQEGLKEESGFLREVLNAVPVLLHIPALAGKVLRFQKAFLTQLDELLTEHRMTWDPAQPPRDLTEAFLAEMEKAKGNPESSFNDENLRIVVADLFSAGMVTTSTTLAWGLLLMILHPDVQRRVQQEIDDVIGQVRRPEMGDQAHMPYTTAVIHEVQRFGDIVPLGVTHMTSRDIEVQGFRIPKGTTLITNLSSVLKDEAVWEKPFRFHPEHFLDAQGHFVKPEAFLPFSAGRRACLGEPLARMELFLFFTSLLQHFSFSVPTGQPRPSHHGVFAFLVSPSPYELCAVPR
Chain of Cytochrome P450 3A4 (P08684 whole entry): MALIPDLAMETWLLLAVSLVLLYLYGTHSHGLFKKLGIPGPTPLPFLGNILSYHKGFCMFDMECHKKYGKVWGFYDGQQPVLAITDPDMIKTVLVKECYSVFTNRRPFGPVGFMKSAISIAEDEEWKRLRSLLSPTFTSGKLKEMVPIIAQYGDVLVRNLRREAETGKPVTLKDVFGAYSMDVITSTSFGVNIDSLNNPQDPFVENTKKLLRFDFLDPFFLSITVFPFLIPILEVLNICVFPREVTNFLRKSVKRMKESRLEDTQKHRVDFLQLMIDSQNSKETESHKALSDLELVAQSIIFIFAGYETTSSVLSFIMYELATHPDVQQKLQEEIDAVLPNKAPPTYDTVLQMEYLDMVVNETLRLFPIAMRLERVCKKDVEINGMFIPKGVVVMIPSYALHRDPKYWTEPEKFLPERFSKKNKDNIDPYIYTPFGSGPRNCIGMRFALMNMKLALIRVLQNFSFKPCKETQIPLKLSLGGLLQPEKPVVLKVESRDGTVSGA

O=C(Nc1ccc(NC(=S)NC(=O)c2ccccc2Cl)cc1)c1cccc(Cl)c1
CC50 [1]: > 50 µM (active)
AC50 [2]: 3.26 µM (active)

O=C1C2C(C(=O)N1Cc1cccnc1)C1C=CC2C12CC2 (configuration not stated)
IC50 (Protein skinhead-1): > 100 µM (inactive)

COc1ccc(Cl)cc1-c1nc(-c2ccc(NC(=O)c3cccs3)cc2)no1
CC50 [1]: 23.2 µM (active)
IC50 (H9c2): > 79 µM (inactive)

O=C(CNC(=O)C12CC3CC(CC(C3)C1)C2)NCc1ccccc1
EC50 [3]: > 195 µM (not active)

O=Cc1ccc(OC(=O)Cc2ccc(F)cc2)cc1
EC50 [3]: > 195 µM (not active)

FC(F)(F)c1nnc2n1N=C(c1cccs1)CS2
CC50 [1]: 22.6 µM (active)

Cc1ccccc1OCC(=O)Nc1ccc([N+](=O)[O-])cc1
EC50 [3]: > 195 µM (not active)

Cc1ccc(C2=NN(S(=O)(=O)c3ccccc3)C(c3ccco3)C2)cc1 (configuration not stated)
CC50 [1]: 8.13 µM (active)

Cc1ccccc1OCCCn1c(=O)sc2ccccc21
CC50 [1]: 32.2 µM (active)
AC50 (Cytochrome P450 2D6): 11.2 µM (inconclusive)
AC50 (Cytochrome P450 3A4): 17.8 µM (inconclusive)

Cc1ccc(C2CC(=O)Oc3cc(O)ccc32)cc1 (configuration not stated)
IC50 (Protein skinhead-1): > 100 µM (inactive)

CC(=O)c1cccc(NC(=O)Nc2ccc3c(c2)N(C)C(=O)CS3)c1
IC50 (H9c2): > 79 µM (inactive)

CCCN(CCC)C(=O)CSc1nc2ccsc2c(=O)n1NC(=O)c1ccccc1
EC50 [3]: > 195 µM (not active)

CCCN(Cc1nnc(-c2ccccc2Cl)o1)C(=O)c1cc2ccccc2o1
CC50 [1]: 19.5 µM (active)

CCCCOc1ccc2c(c1)C(=O)c1cc(O)ccc1-2
CC50 [1]: 11.7 µM (active)

Cn1ncc([N+](=O)[O-])c1C(=O)Nc1ccccc1Cl
EC50 [3]: > 195 µM (not active)

COc1cccc(C(=O)Nc2ccc(C3CC3(Cl)Cl)cc2)c1 (configuration not stated)
AC50 [2]: 3.15 µM (active)

CC1CCCCC1N1CN=C(Nc2nc3ccccc3s2)NC1 (configuration not stated)
IC50 (Protein skinhead-1): > 100 µM (inactive)

COc1ccc(NS(=O)(=O)c2ccc3[nH]c(COc4ccc5ccccc5c4)nc3c2)cc1
EC50 [3]: > 195 µM (not active)

O=C(NCc1ccco1)c1cnn2c(C(F)(F)F)cc(-c3cccs3)nc12
IC50 (H9c2): 34.1 µM (inactive)

O=C1/C(=C/c2cccs2)CCC1C1CCCC1 (configuration not stated)
IC50 (Protein skinhead-1): > 100 µM (inactive)

O=C(Nc1ccc2[nH]c(-c3ccccc3)nc2c1)c1cccs1
IC50 (Protein skinhead-1): > 100 µM (inactive)

CC1(C)Cc2ccccc2C(CSc2ccccc2C(=O)O)=N1
AC50 [2]: 4.98 µM (active)

COCCn1nnnc1C(C(C)C)N(Cc1cccnc1)Cc1cc2cc(OC)ccc2nc1O (configuration not stated)
IC50 (H9c2): 21.8 µM (active)

CCc1ccccc1NC(=O)COc1cccc2ccc(C)nc12
EC50 [3]: > 195 µM (not active)

COCC(=O)Nc1sc2c(c1C(=O)OC)CCCC2
IC50 (Protein skinhead-1): > 100 µM (inactive)

CNc1nc(-c2ccccc2)nnc1C(F)(F)F
CC50 [1]: 27.7 µM (active)

COc1cc2cnc(-c3ccccc3)c(-c3cccc(C(F)(F)F)c3)c2cc1OC
AC50 [2]: 4.47 µM (active)

Cc1cnc(NC(=O)CC(C)c2ccccc2)s1 (configuration not stated)
IC50 (Protein skinhead-1): > 100 µM (inactive)

COC(=O)c1oc2ccc(Cl)cc2c1-n1cccc1
IC50 (Protein skinhead-1): > 100 µM (inactive)

Clc1ccc(C=Cc2ccccn2)cc1
IC50 (Protein skinhead-1): 5.71 µM (active)

CC(=O)NC(CCc1ccc(Cl)c(Cl)c1)c1cccc(O)c(=O)c1 (configuration not stated)
IC50 (H9c2): > 79 µM (inactive)
AC50 (Paired box protein Pax-8): 2.08 µM (active)

Cc1ccc(S(=O)(=O)N(C)C)cc1NC(=O)COC(=O)Cc1nnc(O)c2ccccc12
IC50 (H9c2): > 79 µM (inactive)

O=C(CNC(=O)c1ccc(F)cc1)N/N=C/c1cc(Br)ccc1OC(=O)/C=C/c1ccco1
EC50 [4]: 11.8 µM (active)
EC50 [5]: 12.1 µM (active)
EC50 [6]: 8.72 µM (active)
IC50 (H9c2): 19 µM (active)

CCCOc1ccc2[nH]c(C(=O)N/N=C/c3cc(OC)c(OC)c(OC)c3)cc2c1
IC50 (H9c2): > 79 µM (inactive)
AC50 (Paired box protein Pax-8): 2.89 µM (active)

Cc1[nH]c2ccccc2c1/C=N/NC(=O)c1cc(-c2ccccc2)[nH]n1
IC50 (H9c2): > 79 µM (inactive)

O=c1cc(-c2ccccc2)[nH]n1-c1ccc([N+](=O)[O-])cc1
AC50 [2]: 4.13 µM (active)
AC50 [7]: 3.09 µM (active)
EC50 (Protein RecA): 11 µM (active)

O=[N+]([O-])c1ccc(O)c(/C=N/c2ccc3oc(Cc4ccc(Cl)cc4)nc3c2)c1
EC50 [3]: > 195 µM (not active)

COc1cccc(-c2ccc3c(c2)[C@@H]2[C@@H](CCN2S(=O)(=O)c2cn(C)cn2)[C@@H](CO)N3)c1
AC50 [8]: 9.63 µM (active)

C[C@@H]1CN([C@H](C)CO)S(=O)(=O)c2ccc(C3=CCCCC3)cc2O[C@H]1CN(C)C(=O)Cc1ccncc1
AC50 [8]: 3.22 µM (active)

C[C@@H]1CN([C@@H](C)CO)C(=O)Cc2cc(NC(=O)Nc3ccccc3)ccc2O[C@H]1CN(C)CC1CC1
AC50 [8]: 8.09 µM (active)

CCC(=O)N1CC2(C1)[C@H](c1ccccc1)[C@H](CO)N2Cc1ccccc1OC
AC50 [8]: 8.35 µM (active)
